Measurements taken from patent publication US20260294922A1, “Inhibitors of JUN N-Terminal Kinases (JNK1, JNK2, and/or JNK3) and Mitogen-Activated Protein Kinases (MAPK8, MAPK9, and/or MAPK10) and Methods of Using Same” (Baylor College of Medicine, priority 2023, published 2026).
Values after ≈ are worked out from the molar mass of the structure shown. Read-outs that look alike come from different tables or passages of the source.

What was measured:
[1] = target: T1, JNK1 (Homo sapiens, UniProt P45983); assay: JNK1 kinase (intrinsic ATPase, Kinase-Glo) assay; type: biochemical
T1 sequence (P45983 whole entry): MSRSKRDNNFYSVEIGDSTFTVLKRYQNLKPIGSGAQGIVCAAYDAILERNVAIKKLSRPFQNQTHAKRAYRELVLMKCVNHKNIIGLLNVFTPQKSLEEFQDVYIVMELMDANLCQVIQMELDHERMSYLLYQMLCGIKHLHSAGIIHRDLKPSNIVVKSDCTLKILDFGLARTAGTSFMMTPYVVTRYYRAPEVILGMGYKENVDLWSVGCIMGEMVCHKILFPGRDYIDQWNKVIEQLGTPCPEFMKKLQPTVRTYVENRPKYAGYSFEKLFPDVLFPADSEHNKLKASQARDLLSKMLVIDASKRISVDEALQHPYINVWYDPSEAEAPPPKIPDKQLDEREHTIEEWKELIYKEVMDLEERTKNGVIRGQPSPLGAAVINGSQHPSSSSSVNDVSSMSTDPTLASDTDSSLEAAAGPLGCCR
Method: JNK1, JNK2, and JNK3 hydrolyze ATP to ADP without any peptide substrates. This allows a very robust and fast endpoint assay where the remaining concentration of ATP is measured (BMG ClarioStar Plus plate reader) using the Kinase-Glo Assay kit from Promega (V6711). A luminescence signal is measured, which is produced by the catalytic conversion of beetle luciferin to oxyluciferin by luciferase. Potential inhibition of luciferase (i.e., false negatives) is easily detected, because assays without kinase are always included, and less ATP than is present in this control reaction could also indicate an inhibition of luciferase, which can be excluded by a counter screen with only luciferase.
To mitigate violation of the linear initial velocity principle, which is a problem in end-point assays when doing dose-responses, the enzyme concentration was carefully optimized, in a total assay volume of 25 μL. […] The kinase reaction was done for 30 or 60 min at 30° C., and detection of leftover ATP was measured according to Promega's protocol. […] Fractional activities were obtained from normalized data. Non-linear regression (GraphPad Prism7) and a modified Morrison equation for tight binding was used to determine apparent Ki values for inhibitors, assuming no particular mode of inhibition. An orthogonal binding assay (LanthaScreen) was outsourced to ThermoFisher Scientific's SelectScreen Services to determine IC50 values.

[2] = target: T2, JNK2 (Homo sapiens, UniProt P45984); assay: JNK2 kinase (intrinsic ATPase, Kinase-Glo) assay; type: biochemical
T2 sequence (P45984 whole entry): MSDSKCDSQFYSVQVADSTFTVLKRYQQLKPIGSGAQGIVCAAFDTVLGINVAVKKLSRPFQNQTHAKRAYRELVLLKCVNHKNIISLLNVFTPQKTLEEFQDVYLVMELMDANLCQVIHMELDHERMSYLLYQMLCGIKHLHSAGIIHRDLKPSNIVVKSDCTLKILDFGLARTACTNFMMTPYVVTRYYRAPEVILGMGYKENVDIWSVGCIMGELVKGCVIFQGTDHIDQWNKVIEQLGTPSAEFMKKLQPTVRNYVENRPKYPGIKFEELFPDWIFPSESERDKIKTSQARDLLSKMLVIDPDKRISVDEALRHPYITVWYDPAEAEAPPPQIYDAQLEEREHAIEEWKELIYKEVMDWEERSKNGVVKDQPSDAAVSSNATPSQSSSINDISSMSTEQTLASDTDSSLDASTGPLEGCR

[3] = target: T3, JNK3 (Homo sapiens, UniProt P53779); assay: JNK3 kinase (intrinsic ATPase, Kinase-Glo) assay; type: biochemical
T3 sequence (P53779 whole entry): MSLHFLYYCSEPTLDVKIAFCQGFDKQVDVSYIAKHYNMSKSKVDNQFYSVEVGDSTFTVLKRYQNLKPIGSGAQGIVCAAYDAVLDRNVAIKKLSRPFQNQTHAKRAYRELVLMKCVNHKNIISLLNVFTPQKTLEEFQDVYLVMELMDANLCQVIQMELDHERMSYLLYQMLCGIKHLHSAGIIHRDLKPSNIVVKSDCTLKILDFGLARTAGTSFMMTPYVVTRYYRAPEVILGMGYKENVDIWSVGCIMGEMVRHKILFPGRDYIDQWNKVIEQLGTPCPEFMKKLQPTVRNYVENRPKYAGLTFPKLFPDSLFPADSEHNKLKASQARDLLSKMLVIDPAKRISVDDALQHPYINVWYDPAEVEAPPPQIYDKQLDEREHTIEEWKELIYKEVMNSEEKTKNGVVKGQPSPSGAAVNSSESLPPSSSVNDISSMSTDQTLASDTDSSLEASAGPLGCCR

[4] = target: T1, JNK1; assay: Promega NanoBRET intracellular target engagement (tracer K10 displacement), JNK1; type: cell-based
[5] = target: T2, JNK2; assay: Promega NanoBRET intracellular target engagement (tracer K10 displacement), JNK2; type: cell-based
[6] = target: T3, JNK3; assay: Promega NanoBRET intracellular target engagement (tracer K10 displacement), JNK3; type: cell-based
[7] = Solubility
[8] = In vitro metabolism in mouse liver microsomes; conditions: for half-life: mouse, microsomes
Method: (§1) The target product profile seeks to deliver JNK inhibitor as a once daily oral administration. To prioritize compounds for further development, in vitro metabolism of several CDD JNK inhibitors were determined to approximate the plasma half-life and the rate of metabolism of the compounds in vivo.

[9] = In vitro metabolism in human liver microsomes; conditions: human, microsomes
Method: as §1

Compound | Kd [1] | Kd ([2]; Table 3a, read-out: Kd JNK2) | Kd ([3]; Table 3a, read-out: Kd JNK3) | IC50 [4] | IC50 [5] | IC50 [6] | solubility [7] | half-life [8] | half-life [9] | Kd [2] | Kd [3] | metabolism in liver microsomes ([8]; liver microsomes, in words)
Cc1ccc(NC(=O)c2ccn3ncc(-c4cnc5[nH]ccc5c4)c3c2)cc1 [CDD-2288, 3-(1H-pyrrolo[2,3-b]pyridin-5-yl)-N-(p-tolyl)pyrazolo[1,5-a]pyridine-5-carboxamide] | 0.36 ± 0.11 nM | 1.63 ± 0.14 nM | 1.41 ± 0.07 nM | 830 nM | 900 nM | 1500 nM | 1 µM (≈ 0.367 µg/mL) | – | – | – | – | –
Cc1ccc(NC(=O)c2ccn3ncc(-c4cncc5ccccc45)c3c2)cc1 [CDD-2325, 3-(isoquinolin-4-yl)-N-(p-tolyl)pyrazolo[1,5-a]pyridine-5-carboxamide] | 0.28 ± 0.12 nM | 1.27 ± 0.14 nM | 1.18 ± 0.09 nM | 1400 nM | 890 nM | 1200 nM | 2.3 µM (≈ 0.87 µg/mL) | 31 min | 7.7 min | – | – | –
CNCc1ccc(NC(=O)c2ccc3ncc(-c4cnc5[nH]ccc5c4)n3c2)cc1 [CDD-2488, N-(4-((methylamino)methyl)phenyl)-3-(1H-pyrrolo[2,3-b]pyridin-5-yl)imidazo[1,2-a]pyridine-6-carboxamide] | 3.1 ± 0.8 nM | 3.08 ± 0.16 nM | 4.34 ± 0.6 nM | 66000 nM | 13500 nM | 34800 nM | 124 µM (≈ 49.2 µg/mL) | 126 min | 119 min | – | – | –
CNC(=O)c1cc(NC(=O)c2cc3c(-c4cnc5[nH]ccc5c4)cccc3s2)ccc1OC [CDD-2490, N-(4-methoxy-3-(methylcarbamoyl)phenyl)-4-(1H-pyrrolo[2,3-b]pyridin-5-yl)benzo[b]thiophene-2-carboxamide] | 1.52 ± 0.3 nM | – | – | 6300 nM | 2000 nM | 29300 nM | 0.4 µM (≈ 0.183 µg/mL) | – | – | 5.37 ± 0.42 nM | 3.53 nM | –
CNC(=O)c1ccn2ncc(-c3cnc4[nH]ccc4c3)c2c1 [CDD-2574, N-methyl-3-(1H-pyrrolo[2,3-b]pyridin-5-yl)pyrazolo[1,5-a]pyridine-5-carboxamide] | 1.69 ± 0.39 nM | 12.5 ± 0.68 nM | 6.56 ± 0.85 nM | 7300 nM | 5400 nM | 5900 nM | 11.1 µM (≈ 3.23 µg/mL) | 7.5 min | 36.5 min | – | – | –
CNC(=O)c1cc2c(-c3cnc4[nH]ccc4c3)cccc2s1 [CDD-2627, N-methyl-4-(1H-pyrrolo[2,3-b]pyridin-5-yl)benzo[b]thiophene-2-carboxamide] | 3.74 ± 0.93 nM | 14.8 ± 0.95 nM | 9 ± 2.4 nM | 14800 nM | 6100 nM | 23000 nM | 40.3 µM (≈ 12.4 µg/mL) | – | – | – | – | –
O=C(Nc1cccc(C(=O)N2CCCCC2)c1)c1cc2c(-c3cnc4[nH]ccc4c3)cccc2s1 [CDD-2630, N-(3-(piperidine-1-carbonyl)phenyl)-4-(1H-pyrrolo[2,3-b]pyridin-5-yl)benzo[b]thiophene-2-carboxamide] | 0.68 ± 0.08 nM | 2.47 ± 0.25 nM | 1.63 ± 0.26 nM | 430 nM | 230 nM | 149 nM | 1.6 µM (≈ 0.769 µg/mL) | 3.5 min | 18.2 min | – | – | –
COc1ccc(NC(=O)c2cc3c(-c4cnc5[nH]ccc5c4)cccc3s2)cc1C(=O)N1CCOCC1 [CDD-2635, N-(4-methoxy-3-(morpholine-4-carbonyl)phenyl)-4-(1H-pyrrolo[2,3-b]pyridin-5-yl)benzo[b]thiophene-2-carboxamide] | 0.16 ± 0.05 nM | 1.54 ± 0.13 nM | 0.76 ± 0.22 nM | 186 nM | 325 nM | 160 nM | 2.6 µM (≈ 1.33 µg/mL) | 28.6 min | 74.6 min | – | – | –
COc1ccc(NC(=O)c2cc3c(-c4cnc5[nH]ccc5c4)cccc3s2)cc1C(=O)N1CCN(C)CC1 [CDD-2636, N-(4-methoxy-3-(4-methylpiperazine-1-carbonyl)phenyl)-4-(1H-pyrrolo[2,3-b]pyridin-5-yl)benzo[b]thiophene-2-carboxamide] | 0.57 ± 0.1 nM | 1.93 ± 0.14 nM | 0.54 ± 0.09 nM | 1200 nM | 820 nM | 1200 nM | 4.9 µM (≈ 2.58 µg/mL) | 16.3 min | 16 min | – | – | –
Cc1ccc(NC(=O)c2cc3c(-c4cnc5[nH]ccc5c4)cccc3s2)cc1C(=O)N(C)C [CDD-2729, N-(3-(dimethylcarbamoyl)-4-methylphenyl)-4-(1H-pyrrolo[2,3-b]pyridin-5-yl)benzo[b]thiophene-2-carboxamide] | 1.2 ± 0.16 nM | 6.5 ± 0.63 nM | 1.93 ± 0.14 nM | 1000 nM | 1000 nM | 781 nM | – | 20.1 min | 55.1 min | – | – | –
COc1ccc(NC(=O)c2cc3c(-c4cnc5[nH]cc(C)c5c4)cccc3s2)cc1C(=O)N(C)C [CDD-2731, N-(3-(dimethylcarbamoyl)-4-methoxyphenyl)-4-(3-methyl-1H-pyrrolo[2,3-b]pyridin-5-yl)benzo[b]thiophene-2-carboxamide] | 0.17 ± 0.05 nM | 1.28 ± 0.15 nM | 0.81 ± 0.05 nM | 156 nM | 156 nM | 124 nM | 3.2 µM (≈ 1.55 µg/mL) | 31.8 min | 115 min | – | – | rapidly metabolized
CN(C)C(=O)c1cc(NC(=O)c2cc3c(-c4cnc5[nH]ccc5c4)cccc3o2)ccc1O [CDD-2855, N-(3-(dimethylcarbamoyl)-4-hydroxyphenyl)-4-(1H-pyrrolo[2,3-b]pyridin-5-yl)benzofuran-2-carboxamide] | 1.52 ± 0.15 nM | 12.2 ± 1.3 nM | 2.68 ± 0.2 nM | 4910 nM | 4200 nM | 5300 nM | – | 115 min | 206 min | – | – | –
NC(=O)c1cccc(NC(=O)c2cc3c(-c4cnc5[nH]ccc5c4)cccc3s2)c1 [CDD-2936, N-(3-carbamoylphenyl)-4-(1H-pyrrolo[2,3-b]pyridin-5-yl)benzo[b]thiophene-2-carboxamide] | 1.62 ± 0.31 nM | – | – | 702 nM | 780 nM | 1140 nM | – | 68.9 min | 273 min | 9.09 ± 0.53 nM | 3.2 nM | –
CN(C)C(=O)c1cc(O)cc(NC(=O)c2cc3c(-c4cnc5[nH]ccc5c4)cccc3s2)c1 [CDD-2937, N-(3-(dimethylcarbamoyl)-5-hydroxyphenyl)-4-(1H-pyrrolo[2,3-b]pyridin-5-yl)benzo[b]thiophene-2-carboxamide] | 0.28 ± 0.05 nM | 4.53 ± 0.55 nM | 1.67 ± 0.06 nM | 1600 nM | 1460 nM | 1130 nM | – | 58 min | 193 min | – | – | –
CN(C)C(=O)c1ccc(O)c(NC(=O)c2cc3c(-c4cnc5[nH]ccc5c4)cccc3s2)c1 [CDD-2938, N-(5-(dimethylcarbamoyl)-2-hydroxyphenyl)-4-(1H-pyrrolo[2,3-b]pyridin-5-yl)benzo[b]thiophene-2-carboxamide] | 4.6 ± 1.9 nM | 1.22 ± 0.27 nM | 1.41 ± 0.3 nM | 11500 nM | 16100 nM | 15400 nM | 5.4 µM (≈ 2.47 µg/mL) | 24 min | 24.3 min | – | – | –
CN(C)C(=O)c1cc(NC(=O)c2cc3c(-c4cnc5[nH]ccc5c4)cccc3s2)ccn1 [CDD-3012, 4-(4-(1H-pyrrolo[2,3-b]pyridin-5-yl)benzo[b]thiophene-2-carboxamido)-N,N-dimethylpicolinamide] | 0.52 ± 0.12 nM | 4.84 ± 0.49 nM | 2.08 ± 0.18 nM | 3800 nM | 3600 nM | 6000 nM | 2 µM (≈ 0.883 µg/mL) | 66.7 min | 548 min | – | – | –
Cc1c[nH]c2ncc(-c3cccc4sc(C(=O)Nc5ccc(O)c(C(=O)N(C)C)c5)cc34)cc12 [CDD-3017, N-(3-(dimethylcarbamoyl)-4-hydroxyphenyl)-4-(3-methyl-1H-pyrrolo[2,3-b]pyridin-5-yl)benzo[b]thiophene-2-carboxamide] | 0.39 ± 0.12 nM | 2.23 ± 0.12 nM | 2.7 ± 0.29 nM | 254 nM | 228 nM | 235 nM | – | 131 min | 358 min | – | – | –
CN(C)C(=O)c1cc(NC(=O)c2cc3c(-c4cnc5[nH]ncc5c4)cccc3s2)ccc1O [CDD-3018, N-(3-(dimethylcarbamoyl)-4-hydroxyphenyl)-4-(1H-pyrazolo[3,4-b]pyridin-5-yl)benzo[b]thiophene-2-carboxamide] | 3.58 ± 0.47 nM | 11.4 ± 1 nM | 5.17 ± 0.33 nM | – | 10900 nM | 31700 nM | 1.5 µM (≈ 0.686 µg/mL) | 58.8 min | 531 min | – | – | –
